Data taken from patent publication US11111264B2, “Morphic forms of 4-amino-7-(3,4-dihydroxy-5-(hydroxymethyl)tetrahydrofuran-2-yl)-2-methyl-7H-pyrrolo[2,3-d]pyrimidine-5-carboxamide and uses thereof” (Chimerix, Inc., priority 2017, dated 2021).
≈ marks a conversion by molar mass, not a printed value.

Key:
Format in all cases: physicochemical
[1] = Exact solubility of Compound 1 Form A in selected solvent systems (1 day suspension, HPLC); settings: for solubility at 1 day: thermodynamic from solid
Procedure: The exact solubilities of Compound 1 Form A in selected solvent systems were determined at 24° C. and 60° C. About 100 mg of Compound 1 Form A were suspended in 2.0 mL of solvent and stirred using a magnetic stirrer bar for 1 day at 24° C. or 60° C., followed by filter centrifugation at the corresponding temperature. The concentration of Compound 1 was then determined by HPLC.
The exact solubilities of Form A in selected solvent systems were determined at 24° C. and 60° C. About 100 mg of Compound 1 were suspended in 2.0 mL of solvent and stirred using a magnetic stirrer bar for 1 day at 24° C. or 60° C., followed by filter centrifugation at the corresponding temperature. The concentration of Compound 1 was then determined by HPLC.

[2] = Approximate solubility of Compound 1 in various solvents (stepwise solvent addition); settings: thermodynamic from solid, read-out: Solubility [S, mg/mL]
Procedure: To determine approximate solubility of Compound 1, solvent was added in steps to the solid material (about 20 to 100 mg). The solubility values were rough approximations. Therefore, these values were used solely for the preliminary design of subsequent crystallization experiments.

[3] = Chemical stability when stirring suspension at 75° C. (Experiment No. 26); settings: 1-propanol/0.01 M NaOH aq 1:2 v/v; stirring at 75° C. overnight
Procedure: Experiment No. 26 tested seeding behavior at 75° C. at the 16 g scale as well as chemical stability when stirring suspensions at 75° C. for extended times.
16.02 g of Compound 1 were placed in a 300 mL glass reactor (diameter 70 mm) and 200 mL of 1-propanol/0.01 M NaOH aq 1:2 v/v were added at room temperature. The suspension was stirred using a two-bladed impeller (diameter 40 mm; 500 rpm) and heated to 90° C. in 30 minutes. After stirring at 90° C. for about 15 minutes (500 rpm) the solution formed was cooled to 75° C. with a cooling rate of 15K/hour and stirred at 75° C. for 10 minutes.
At 75° C. the solution was seeded with a suspension of 158 mg of crude Compound 1 in 5 mL of water. The weak suspension formed was stirred at 75° C. overnight followed by hot filtration (sintered glass funnel, porosity P4, diameter 65 mm; the suspension was easy to filter). The glass reactor was flushed with 20 mL of water and the washing suspension was also filtered. The filter cake was again washed with 20 mL of water and air dried for 20 minutes by drawing ambient air through the glass funnel.

Cc1nc(N)c2c(C(N)=O)cn([C@@H]3O[C@H](CO)[C@@H](O)[C@H]3O)c2n1 [Compound 1, 4-amino-7-((2R,3R,4S,5R)-3,4-dihydroxy-5-(hydroxymethyl)tetrahydrofuran-2-yl)-2-methyl-7H-pyrrolo[2,3-d]pyrimidine-5-carboxamide]
solubility at 1 day ([1]; 0.1 M aqueous NaOH, aqueous buffer, NaOH aq 0.1M, 24° C.): 2.8 mg/mL (≈ 8.66 mM) | solubility at 1 day ([1]; 0.1 M aqueous NaOH, aqueous buffer, NaOH aq 0.1M, 60° C.): 8 mg/mL (≈ 24.7 mM) | solubility at 1 day ([1]; DMSO/0.01 M aqueous NaOH 1:2 v/v, aqueous with cosolvent or surfactant or cyclodextrin, DMSO/NaOH aq 0.01M 1:2 v/v, 24° C.): 4.8 mg/mL (≈ 14.8 mM) | solubility at 1 day ([1]; DMSO/0.01 M aqueous NaOH 1:2 v/v, aqueous with cosolvent or surfactant or cyclodextrin, DMSO/NaOH aq 0.01M 1:2 v/v, 60° C.): 19.6 mg/mL (≈ 60.6 mM) | solubility at 1 day ([1]; DMSO/0.1 M aqueous NaOH 1:2 v/v, aqueous with cosolvent or surfactant or cyclodextrin, DMSO/NaOH aq 0.1M 1:2 v/v, 24° C.): 12.5 mg/mL (≈ 38.7 mM) | solubility ([1]; NaOH aq 0.01M, 24° C.): 0.81 mg/mL (≈ 2.51 mM) | solubility at 1 day ([1]; aqueous with cosolvent or surfactant or cyclodextrin, 1-Propanol/NaOH aq 0.01M 1:3 v/v, 24° C.): 6.8 mg/mL (≈ 21 mM) | solubility at 1 day ([1]; aqueous with cosolvent or surfactant or cyclodextrin, 1-Propanol/NaOH aq 0.01M 1:3 v/v, 60° C.): 25.9 mg/mL (≈ 80.1 mM) | solubility at 1 day ([1]; aqueous with cosolvent or surfactant or cyclodextrin, 1-Propanol/NaOH aq 0.1M 1:3 v/v, 24° C.): 16.6 mg/mL (≈ 51.3 mM) | solubility at 1 day ([1]; aqueous with cosolvent or surfactant or cyclodextrin, 1-Propanol/water 1:2 v/v, 60° C.): 30.9 mg/mL (≈ 95.6 mM) | solubility at 1 day ([1]; aqueous with cosolvent or surfactant or cyclodextrin, 2-Propanol/NaOH aq 0.01M 1:3 v/v, 24° C.): 5.2 mg/mL (≈ 16.1 mM) | solubility at 1 day ([1]; aqueous with cosolvent or surfactant or cyclodextrin, 2-Propanol/NaOH aq 0.01M 1:3 v/v, 60° C.): 16.9 mg/mL (≈ 52.3 mM) | solubility at 1 day ([1]; aqueous with cosolvent or surfactant or cyclodextrin, 2-Propanol/NaOH aq 0.1M 1:3 v/v, 24° C.): 14.1 mg/mL (≈ 43.6 mM) | solubility at 1 day ([1]; aqueous with cosolvent or surfactant or cyclodextrin, 2-Propanol/water 1:2 v/v, 60° C.): 26.6 mg/mL (≈ 82.3 mM) | solubility at 1 day ([1]; aqueous with cosolvent or surfactant or cyclodextrin, DMSO/water 1:1 v/v, 60° C.): 18.7 mg/mL (≈ 57.8 mM) | solubility at 1 day ([1]; aqueous with cosolvent or surfactant or cyclodextrin, Ethanol/NaOH aq 0.01M 1:3 v/v, 24° C.): 3.3 mg/mL (≈ 10.2 mM) | solubility at 1 day ([1]; aqueous with cosolvent or surfactant or cyclodextrin, Ethanol/NaOH aq 0.01M 1:3 v/v, 60° C.): 15.3 mg/mL (≈ 47.3 mM) | solubility at 1 day ([1]; aqueous with cosolvent or surfactant or cyclodextrin, Ethanol/NaOH aq 0.1M 1:3 v/v, 24° C.): 9 mg/mL (≈ 27.8 mM) | solubility ([2]; aqueous buffer, NaOH aq 0.1M, 60° C.): ~9 mg/mL (≈ 27.8 mM) | solubility ([2]; aqueous buffer, NaOH aq 0.1M, RT): ~3 mg/mL (≈ 9.28 mM) | solubility ([2]; aqueous buffer, NaOH aq 0.5M, 60° C.): ~38 mg/mL (≈ 118 mM) | solubility ([2]; aqueous buffer, NaOH aq 0.5M, RT): ~16 mg/mL (≈ 49.5 mM) | solubility ([2]; aqueous buffer, NaOH aq 1M, 60° C.): ~95 mg/mL (≈ 294 mM) | solubility ([2]; aqueous buffer, NaOH aq 1M, RT): ~60 mg/mL (≈ 186 mM) | solubility ([2]; aqueous with cosolvent or surfactant or cyclodextrin, 1-Propanol/water 1:2 v/v, RT): ~6 mg/mL (≈ 18.6 mM) | solubility ([2]; aqueous with cosolvent or surfactant or cyclodextrin, 1-Propanol/water 1:2 v/v, at 80° C.): ~51 mg/mL (≈ 158 mM) | solubility ([2]; aqueous with cosolvent or surfactant or cyclodextrin, 1-Propanol/water 2:1 v/v, RT): ~7 mg/mL (≈ 21.7 mM) | solubility ([2]; aqueous with cosolvent or surfactant or cyclodextrin, 2-Propanol/NaOH aq 0.1M 1:1 v/v, RT): ~16 mg/mL (≈ 49.5 mM) | solubility ([2]; aqueous with cosolvent or surfactant or cyclodextrin, 2-Propanol/water 1:1 v/v, RT): ~7 mg/mL (≈ 21.7 mM) | solubility ([2]; aqueous with cosolvent or surfactant or cyclodextrin, 2-Propanol/water 1:2 v/v, RT): ~5 mg/mL (≈ 15.5 mM) | solubility ([2]; aqueous with cosolvent or surfactant or cyclodextrin, 2-Propanol/water 1:2 v/v, at 70° C.): ~31 mg/mL (≈ 95.9 mM) | solubility ([2]; aqueous with cosolvent or surfactant or cyclodextrin, 2-Propanol/water 2:1 v/v, RT): ~6 mg/mL (≈ 18.6 mM) | solubility ([2]; aqueous with cosolvent or surfactant or cyclodextrin, DMSO/NaOH aq 0.1M 1:1 v/v, RT): ~20 mg/mL (≈ 61.9 mM) | solubility ([2]; aqueous with cosolvent or surfactant or cyclodextrin, DMSO/water 1:1 v/v, RT): ~8 mg/mL (≈ 24.7 mM) | solubility ([2]; aqueous with cosolvent or surfactant or cyclodextrin, DMSO/water 1:1 v/v, at 80° C.): ~45 mg/mL (≈ 139 mM) | solubility ([2]; aqueous with cosolvent or surfactant or cyclodextrin, DMSO/water 1:2 v/v, RT): ~3 mg/mL (≈ 9.28 mM) | solubility ([2]; aqueous with cosolvent or surfactant or cyclodextrin, THF/water 1:1 v/v, RT): ~22 mg/mL (≈ 68 mM) | solubility ([2]; aqueous with cosolvent or surfactant or cyclodextrin, THF/water 1:4 v/v, RT): ~6 mg/mL (≈ 18.6 mM) | solubility ([2]; aqueous with cosolvent or surfactant or cyclodextrin, THF/water 4:1 v/v, RT): ~15 mg/mL (≈ 46.4 mM) | solubility ([2]; organic solvent or mixture, DMSO, RT): ~500 mg/mL (≈ 1550 mM) | solubility ([2]; organic solvent or mixture, Ethanol, RT): 1.7 mg/mL (≈ 5.26 mM) | solubility ([2]; organic solvent or mixture, THF, RT): < 1 mg/mL | solubility ([2]; Water, 60° C.): ~3 mg/mL (≈ 9.28 mM) | solubility ([2]; Water, RT): < 1.3 mg/mL | chemical stability of suspension [3]: chemically stable
